Our source for the MIC values is ChEMBL document CHEMBL1136842, “5-Nitrofuran-2-yl derivatives: synthesis and inhibitory activities against growing and dormant mycobacterium species” (Bioorg Med Chem Lett, 2009).

≈ marks a conversion by molar mass, not a printed value.

In this test the test system is Mycobacterium tuberculosis variant microti. Put plainly: Antimycobacterial activity against Mycobacterium microti MTCC 1727 by agar dilution method. It counts as functional. In general terms: In agar dilution, organisms are placed on agar that contains the substance at set levels.
By MIC is commonly meant the lowest concentration found to suppress growth. Low readings indicate a more susceptible organism, high ones a less susceptible organism. `O=[N+]([O-])c1ccc(/C=N/NC(=S)Nc2ncc(Br)cc2Br)o1` had an MIC of 6.9 µM (≈ 3.1 µg/mL).

As for `O=[N+]([O-])c1ccc(/C=N/NC(=S)Nc2ccc(Cl)cc2)o1`, the minimum inhibitory concentration (MIC) came to 38.4 µM (≈ 12.5 µg/mL).

As for `Cc1cccnc1NC(=S)N/N=C/c1ccc([N+](=O)[O-])o1`, the minimal inhibitory concentration (MIC) was determined as 10.2 µM (≈ 3.11 µg/mL).

As for `CCc1cccc(CC)c1NC(=S)N/N=C/c1ccc([N+](=O)[O-])o1`, 72.1 µM (≈ 25 µg/mL) was the least that counted as inhibitory (MIC).

Molecule `O=[N+]([O-])c1ccc(/C=N/NC(=S)Nc2ccccc2)o1` yielded a minimal inhibitory concentration (MIC) of 86.1 µM (≈ 25 µg/mL).

For `Cc1ccnc(NC(=S)N/N=C/c2ccc([N+](=O)[O-])o2)c1`, the MIC amounted to 20.5 µM (≈ 6.26 µg/mL).

Molecule `Cc1ccc(NC(=S)N/N=C/c2ccc([N+](=O)[O-])o2)cc1` gave an MIC of 20.5 µM (≈ 6.24 µg/mL).

As to `O=[N+]([O-])c1ccc(/C=N/NC(=S)Nc2ccccc2Br)o1`, inhibition of growth (MIC) required 67.1 µM (≈ 24.8 µg/mL).

For the molecule `Cc1ccc(NC(=S)N/N=C/c2ccc([N+](=O)[O-])o2)c(C)c1`, the MIC came to 78.5 µM (≈ 25 µg/mL).

Regarding `Cc1cccc(C)c1NC(=S)N/N=C/c1ccc([N+](=O)[O-])o1`, the lowest concentration to inhibit growth (MIC) was 78.5 µM (≈ 25 µg/mL).

On to `Cc1cc(C)nc(NC(=S)N/N=C/c2ccc([N+](=O)[O-])o2)c1`, for which inhibition of growth (MIC) required 39.1 µM (≈ 12.5 µg/mL).

As for `Cc1ccc(C)c(NC(=S)N/N=C/c2ccc([N+](=O)[O-])o2)c1`, the minimum inhibitory concentration (MIC) amounted to 157 µM (≈ 50 µg/mL).

As for `O=[N+]([O-])c1ccc(/C=N/NC(=S)Nc2ccccn2)o1`, 48.4 µM (≈ 14.1 µg/mL) was the least that counted as inhibitory (MIC).

`O=[N+]([O-])c1ccc(/C=N/NC(=S)Nc2ccc(Cl)cn2)o1` came in with an MIC of 38.3 µM (≈ 12.5 µg/mL).

`COc1ccc(NC(=S)N/N=C/c2ccc([N+](=O)[O-])o2)c(OC)c1` gave an MIC of 17.8 µM (≈ 6.24 µg/mL).

`COc1ccc(NC(=S)N/N=C/c2ccc([N+](=O)[O-])o2)cc1` had an MIC of 78 µM (≈ 25 µg/mL).

In turn, `NS(=O)(=O)c1ccc(NC(=S)N/N=C/c2ccc([N+](=O)[O-])o2)cc1` showed a minimal inhibitory concentration (MIC) of 67.6 µM (≈ 25 µg/mL).

Regarding `O=C(O)c1cn(C2CC2)c2cc(N3CCNCC3)c(F)cc2c1=O` [CIPROFLOXACIN], the lowest concentration to inhibit growth (MIC) was 2.35 µM (≈ 0.779 µg/mL).

Molecule `NNC(=O)c1ccncc1` [ISONIAZID] came in with an MIC of 22.8 µM (≈ 3.13 µg/mL).

For the molecule `CO[C@H]1/C=C/O[C@@]2(C)Oc3c(C)c(O)c4c(O)c(c(/C=N/N5CCN(C)CC5)c(O)c4c3C2=O)NC(=O)/C(C)=C\C=C\[C@H](C)[C@H](O)[C@@H](C)[C@@H](O)[C@@H](C)[C@H](OC(C)=O)[C@@H]1C` [RIFAMPIN], the MIC was determined as 30.4 µM (≈ 25 µg/mL).
